Experimental findings from patent publication US7884117B2, “Carbonylamino pyrrolopyrazoles, potent kinase inhibitors” (Pfizer Inc., priority 2005, dated 2011) are described below.

The target in assay [1] is T1, PAK4 Kinase domain (PAK4 KD) (Homo sapiens, UniProt O96013).
T1 construct: Cloning, expression, and purification of recombinant PAK4 Kinase domain (PAK4 KD); His tag (pET28a(+)/pET24a(+), Ni-NTA purification) (N, cleaved yes); GST (pGST4.5, glutathione column) (N, cleaved yes); made in house; host or cells: E. coli BL21(DE3)
Kind of assay: PAK4 kinase domain enzymatic assay (PK/LDH-coupled, Ki). The format is biochemical. The following applies: PAK4 Kinase Domain.

Assay [2] has as its target T2, PAK4 kinase activity in whole cells (TR-293-KDG, modified HEK 293) (Homo sapiens, UniProt O96013).
T2 construct: engineered to overexpress both GEF-H1b and the kinase domain (KD) of PAK4; expressed in transfected cells; host or cells: TR-293-KDG (modified HEK 293, Trex system, Invitrogen)
The experiment in a line: PAK4 cellular assay: sandwich ELISA of PAK4-dependent phosphorylation of GEF-H1b in TR-293-KDG cells. The format is cell-based. To be noted: 3-hour exposure. (In general: An ELISA detects its analyte on a solid surface through an enzyme-linked reagent.)
Method: A sandwich ELISA method was used to measure the PAK4 kinase activity in whole cells. The level of PAK4-dependent phosphorylation of GEF-H1b can be determined by monitoring the binding of a phosphospecific antibody to GEF-H1b. […] The KD of PAK4 is inducible in this cell line by tetracycline (Trex system, Invitrogen). […] To establish a phosphorylation event on GEF-HL, cells are induced with doxycycline to express the PAK4 KD. […] Candidate substance effect is measured as the ability to block this phosphorylation event.
ELISA plate was prepared by pre-coating the plates with a capture antibody (α-HA-tag mouse monoclonal antibody), blocked with BSA, and washed in 0.1% tween 20 in tris-buffered saline (TBST). […] Cells were then lysed with a modified RIPA buffer supplemented with protease inhibitors. […] Between all subsequent steps plates were washed 4 times with TBST. Detection antibody (recognizing the phospho-specific eptitope on GEF-H1b) was added for 1 hour, followed by addition of an enzyme linked goat α-rabbit secondary antibody for 45 minutes. […] EC50 values were calculated by sigmoid curve fitting using a four-parameter analysis.

T1 sequence (O96013 321-572 limits assumed): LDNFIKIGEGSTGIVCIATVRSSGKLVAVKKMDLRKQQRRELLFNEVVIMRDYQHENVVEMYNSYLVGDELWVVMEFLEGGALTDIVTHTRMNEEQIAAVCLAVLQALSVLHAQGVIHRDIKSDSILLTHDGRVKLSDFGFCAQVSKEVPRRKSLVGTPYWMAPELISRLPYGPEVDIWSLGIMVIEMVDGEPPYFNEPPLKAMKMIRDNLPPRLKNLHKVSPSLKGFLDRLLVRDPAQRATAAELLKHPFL
T2 sequence (O96013 321-572 limits assumed): as above

By Ki is commonly meant the dissociation constant of the complex between target and ligand, obtained from inhibition or displacement. A high value points to weaker binding. As a reminder, the EC50 is the midpoint of the concentration-response curve. Read a low EC50 as greater potency. In turn, `CN(C)C[C@H](Cc1ccccc1)OC(=O)N1Cc2c(NC(=O)c3ccccc3F)n[nH]c2C1(C)C` [Example 31, (1S)-1-benzyl-2-(dimethylamino)ethyl 3-[(2-fluorobenzoyl)amino]-6,6-dimethyl-4,6-dihydropyrrolo[3,4-c]pyrazole-5(1H)-carboxylate] registered a Ki in assay [1] of 858 nM. Besides, the EC50 in assay [2] was determined as 230 nM.
The like results for `CN(C)C[C@@H](OC(=O)N1Cc2c(NC(=O)c3ccno3)n[nH]c2C1(C)C)c1ccccc1` [Example 85, (S)-2-(dimethylamino)-1-phenylethyl 3-(isoxazole-5-carboxamido)-6,6-dimethylpyrrolo[3,4-c]pyrazole-5(1H,4H,6H)-carboxylate] were, in that order, 143 nM and 4 nM.
The like results for `CN(C)C[C@@H](NC(=O)N1Cc2c(NC(=O)c3cccs3)n[nH]c2C1(C)C)c1ccccc1` [Example 57, N-[(1S)-2-(dimethylamino)-1-phenylethyl]-6,6-dimethyl-3-[(2-thienylcarbonyl)amino]-4,6-dihydropyrrolo[3,4-c]pyrazole-5(1H)-carboxamide] were, in that order, 11.3 nM and 16 nM.
The like results for `CN(C)CC(OC(=O)N1Cc2c(n[nH]c2NC(=O)C2CCCO2)C1(C)C)c1cccc(F)c1` (single isomer, unassigned) [Example 84A] were, in that order, 70 nM and 16 nM.
Take `CN(C)C[C@@H](OC(=O)N1Cc2c(NC(=O)c3ccc(F)cc3F)n[nH]c2C1(C)C)C1CCCCC1` [Example 34, (1S)-1-cyclohexyl-2-(dimethylamino)ethyl 3-[(2,4-difluorobenzoyl)amino]-6,6-dimethyl-4,6-dihydropyrrolo[3,4-c]pyrazole-5(1H)-carboxylate]: in assay [1], the affinity, expressed as Ki, was 510 nM. The compound further returned an EC50 in assay [2] of 60 nM.
The like results for `CN(C)C[C@@H](NC(=O)N1Cc2c(NC(=O)Cc3ccc(F)cc3)n[nH]c2C1(C)C)c1ccccc1` [Example 54, N-[(1S)-2-(dimethylamino)-1-phenylethyl]-3-{[(4-fluorophenyl)acetyl]amino}-6,6-dimethyl-4,6-dihydropyrrolo[3,4-c]pyrazole-5(1H)-carboxamide] were, in that order, 41 nM and 353 nM.
Turning to `CN(C)C[C@@H](OC(=O)N1Cc2c(NC(=O)C3CC3)n[nH]c2C1(C)C)c1ccccc1` [Example 9, (1S)-2-(dimethylamino)-1-phenylethyl 3-[(cyclopropylcarbonyl)amino]-6,6-dimethyl-4,6-dihydropyrrolo[3,4-c]pyrazole-5(1H)-carboxylate], the affinity in assay [1] corresponds to a Ki of 96.4 nM. Further, in assay [2], the EC50 stood at 13.3 nM.
The like results for `CNC[C@@H](OC(=O)N1Cc2c(NC(=O)c3ccc(F)cc3)n[nH]c2C1(C)C)c1ccccc1` [Example 121, (S)-2-(methylamino)-1-phenylethyl 3-(4-fluorobenzamido)-6,6-dimethylpyrrolo[3,4-c]pyrazole-5(1H,4H,6H)-carboxylate] were, in that order, 16.2 nM and 124 nM.
In the case of `CN(C)C[C@@H](NC(=O)N1Cc2c(NC(=O)c3cccc(Oc4ccccc4)c3)n[nH]c2C1(C)C)c1ccccc1` [Example 96, N-[(1S)-2-(dimethylamino)-1-phenylethyl]-6,6-dimethyl-3-[(3-phenoxybenzoyl)amino]-4,6-dihydropyrrolo[3,4-c]pyrazole-5(1H)-carboxamide], in assay [1], the affinity, expressed as Ki, was 12.5 nM. Also, the 50% effective concentration (EC50) in assay [2] was 59 nM.
`CN(C)C[C@@H](OC(=O)N1Cc2c(NC(=O)C(C)(C)C)n[nH]c2C1(C)C)c1ccccc1` [Example 10, (1S)-2-(dimethylamino)-1-phenylethyl 3-[(2,2-dimethylpropanoyl)amino]-6,6-dimethyl-4,6-dihydropyrrolo[3,4-c]pyrazole-5(1H)-carboxylate]: the Ki in assay [1] came to 75 nM. Moreover, in assay [2], the EC50 is 7.2 nM.
Taken in the same sequence, the figures for `CN(C)C[C@@H](OC(=O)N1Cc2c(NC(=O)C3CCCC3)n[nH]c2C1(C)C)c1ccccc1` [Example 12, (1S)-2-(dimethylamino)-1-phenylethyl 3-[(cyclopentylcarbonyl)amino]-6,6-dimethyl-4,6-dihydropyrrolo[3,4-c]pyrazole-5(1H)-carboxylate] were 95.5 nM and 3.27 nM.
The compound `CC1(C)c2[nH]nc(NC(=O)c3cccs3)c2CN1C(=O)N[C@H](CO)c1ccccc1` [Example 100, N-[(1S)-2-hydroxy-1-phenylethyl]-6,6-dimethyl-3-[(2-thienylcarbonyl)amino]-4,6-dihydropyrrolo[3,4-c]pyrazole-5(1H)-carboxamide] had a Ki in assay [1] of 108 nM. In assay [2], this compound came in with an EC50 of 178 nM.
For `CN(C)C[C@@H](OC(=O)N1Cc2c(NC(=O)c3cscn3)n[nH]c2C1(C)C)c1ccccc1` [Example 68, (1S)-2-(dimethylamino)-1-phenylethyl 6,6-dimethyl-3-[(1,3-thiazol-4-ylcarbonyl)amino]-4,6-dihydropyrrolo[3,4-c]pyrazole-5(1H)-carboxylate], in assay [1], the affinity corresponds to a Ki of 48.2 nM. This compound displayed an EC50 in assay [2] of 34.1 nM.
In assay [1], `CN(C)C[C@H](Cc1ccccc1)OC(=O)N1Cc2c(NC(=O)c3ccccc3)n[nH]c2C1(C)C` [Example 30, (1S)-1-benzyl-2-(dimethylamino)ethyl 3-(benzoylamino)-6,6-dimethyl-4,6-dihydropyrrolo[3,4-c]pyrazole-5(1H)-carboxylate] had a Ki of 106 nM. Besides, the EC50 in assay [2] was found to be 2090 nM.
Taken in the same sequence, the figures for `C[C@@H](CN(C)C)OC(=O)N1Cc2c(NC(=O)c3ccccc3)n[nH]c2C1(C)C` [Example 73, (1S)-2-(dimethylamino)-1-methylethyl 3-(benzoylamino)-6,6-dimethyl-4,6-dihydropyrrolo [3,4-c]pyrazole-5(1H)-carboxylate] were 354 nM and 200 nM.
Consider `CN(C)C[C@@H](OC(=O)N1Cc2c(NC(=O)c3ccc(F)cc3F)n[nH]c2C1(C)C)c1ccccc1` [Example 4, (1S)-2-(dimethylamino)-1-phenylethyl 3-[(2,4-difluorobenzoyl)amino]-6,6-dimethyl-4,6-dihydropyrrolo[3,4-c]pyrazole-5(1H)-carboxylate], for which the affinity in assay [1], expressed as Ki, was 68 nM. In assay [2], this compound gave an EC50 of 14.6 nM.
`CN(C)C[C@@H](OC(=O)N1Cc2c(NC(=O)C3CCOC3)n[nH]c2C1(C)C)c1ccccc1` (stereo partly drawn) [Example 119, (S)-2-(dimethylamino)-1-phenylethyl 6,6-dimethyl-3-(tetrahydrofuran-3-carboxamido)pyrrolo[3,4-c]pyrazole-5(1H,4H,6H)-carboxylate] yielded a Ki in assay [1] of 260 nM. The same compound displayed an EC50 in assay [2] of 52 nM.
The like results for `CN(C)C[C@@H](OC(=O)N1Cc2c(NC(=O)Cc3ccc(F)cc3)n[nH]c2C1(C)C)c1ccccc1` [Example 18, (1S)-2-(dimethylamino)-1-phenylethyl 3-{[(4-fluorophenyl)acetyl]amino}-6,6-dimethyl-4,6-dihydropyrrolo[3,4-c]pyrazole-5(1H)-carboxylate] were, in that order, 23.3 nM and 28.3 nM.
The like results for `COc1ccc(CC(=O)Nc2n[nH]c3c2CN(C(=O)O[C@H](CN(C)C)c2ccccc2)C3(C)C)cc1` [Example 19, (1S)-2-(dimethylamino)-1-phenylethyl 3-{[(4-methoxyphenyl)acetyl]amino}-6,6-dimethyl-4,6-dihydropyrrolo [3,4-c]pyrazole-5(1H)-carboxylate] were, in that order, 7.87 nM and 67.8 nM.
The compound `CN(C)CC(OC(=O)N1Cc2c(NC(=O)c3ccc(F)cc3)n[nH]c2C1(C)C)c1ccc(F)cc1` (centres unmarked) [Example 39, 2-(dimethylamino)-1-(4-fluorophenyl)ethyl 3-[(4-fluorobenzoyl)amino]-6,6-dimethyl-4,6-dihydropyrrolo[3,4-c]pyrazole-5(1H)-carboxylate] showed a Ki in assay [1] of 47.5 nM. The compound also came in with an EC50 in assay [2] of 15.3 nM.
Taken in the same sequence, the figures for `CN(C)C[C@@H](OC(=O)N1Cc2c(NC(=O)c3cccc4c3OCC4)n[nH]c2C1(C)C)c1ccccc1` [Example 81, (1S)-2-(dimethylamino)-1-phenylethyl 3-[(2,3-dihydro-1-benzofuran-7-ylcarbonyl)amino]-6,6-dimethyl-4,6-dihydropyrrolo[3,4-c]pyrazole-5(1H)-carboxylate] were 240 nM and 104 nM.
As to `CC(=O)Nc1n[nH]c2c1CN(C(=O)O[C@H](CN(C)C)c1ccccc1)C2(C)C` [Example 7, (1S)-2-(dimethylamino)-1-phenylethyl 3-(acetylamino)-6,6-dimethyl-4,6-dihydropyrrolo[3,4-c]pyrazole-5(1H)-carboxylate], the Ki in assay [1] stood at 314 nM. Further, the EC50 in assay [2] worked out at 230 nM.
Taken in the same sequence, the figures for `CC(C)C(=O)Nc1n[nH]c2c1CN(C(=O)O[C@H](CN(C)C)c1ccccc1)C2(C)C` [Example 8, (1S)-2-(dimethylamino)-1-phenylethyl 3-(isobutyrylamino)-6,6-dimethyl-4,6-dihydropyrrolo[3,4-c]pyrazole-5(1H)-carboxylate] were 124 nM and 7.4 nM.
`CN(C)C[C@@H](OC(=O)N1Cc2c(NC(=O)C3CCC3)n[nH]c2C1(C)C)c1ccccc1` [Example 11, (1S)-2-(dimethylamino)-1-phenylethyl 3-[(cyclobutylcarbonyl)amino]-6,6-dimethyl-4,6-dihydropyrrolo[3,4-c]pyrazole-5(1H)-carboxylate]: in assay [1], the affinity, expressed as Ki, was 101 nM. Also, in assay [2], the EC50 was 15.7 nM.
As for `CC(C)C[C@@H](CN(C)C)OC(=O)N1Cc2c(NC(=O)c3ccccc3)n[nH]c2C1(C)C` [Example 35, (1S)-1-[(dimethylamino)methyl]-3-methylbutyl 3-(benzoylamino)-6,6-dimethyl-4,6-dihydropyrrolo[3,4-c]pyrazole-5(1H)-carboxylate], affinity in assay [1] was put at a Ki of 92.3 nM. The compound further had an EC50 in assay [2] of 216 nM.
